Measured values taken from patent publication US6495598B1, “Perfusate preparation for ophthalmic operation” (Ophtecs Corporation, priority 2001, dated 2002).
Entries after “also recorded” stand apart in the source; their conditions may differ. Where two headings read alike, the source gives them in different places.

Key:
corneas of Dutch rabbits = details: 90 minutes irrigation
Procedure: Irrigating solution No.1 (Example) and solutions No.3, No.4 and No.5 (Comparative Examples) for testing were prepared by dissolving the predetermined amounts of the components listed in Table 2 and, finally, D-3-HBA so as to adjust the total amounts of the aqueous solutions to be 1 liter; adjusting the pHs of the solutions by diluted hydrochloric acid, and subjecting the solutions to aseptic treatment.
Dutch rabbits (male and female weighing 1.9 to 2.9 kg) were used for an experiment. Experiments were performed in rabbit, anesthetized with intramuscular xylazine hydrochloride (“celactal®”, a product Bayer AG.,) and ketamine hydrochloride (“ketalar®”, a product of Sankyo Co. Ltd,.) through intramuscular injection, a 3.2-mm-wide incision was made corneas limbusing a scalpel for ocular surgery. Subsequently, 18-gauge injection needles having a rounded tip were inserted in the anterior chambers through the incisions, and the irrigating solutions were allowed to irrigate at a flow rate of 10 ml/min for 90 minutes. After the irrigation, the incisions were sewed up once by a sewing needle with a suture. The corneal thicknesses were measured by the ultrasonic pachymeter used in Example 4 before and during the perfusion (at intervals of 30 minutes).

[1] = test system: incubated bovine corneal endothelial cell; assay: cell-activating effect, MTT assay-based method; details: for cell-activating effect (absorbance at 450 nm): 5 and 20 mM, 48 hrs incubation, vs control containing no HBA
Procedure: The D-form, D,L-form and L-form of D-3-HBA were dissolved in the DULBECCO's MEM salt incubation media at concentrations of 0 (control), 5 and 20 mM, respectively, and the resulting solutions were injected into a 24-well collagen-coated plate implanted (4×10^4 cell/ml) with a pre-incubated bovine corneal endothelial cell and then incubated for 48 hrs. After the incubation, 50 μl of cell-counting kit (product of DOJIN KAGAKU Ltd.) was added to each well to develop colors, and absorbance at 450 nm was measured by using each supernatant.

[2] = test system: cultured bovine corneal endothelial cells damaged by ultrasound
Procedure: As an invasive model assuming a phacoemulsification and aspiration method used as a surgical method of cataract, incubated bovine corneal endothelial cells damaged by ultrasound were subjected to an experiment for examining the recovery of their barrier function.
Using the incubated bovine corneal endothelial cells damaged by ultrasound, the barrier function-recovering effects of D-3-HBA and oxyglutathione were subjected to an experiment in accordance with the following procedure.
The monolayer of cultured bovine corneal endothelial cells on a filter, which had been damaged by sonication to the cells at 92 W/cm^2 three course at intervals of 0.1 sec, was incubated in DULBECCO's MEM medium (with 10% of embryonic bovine serum) containing 20 mM of D-3-HBA or 0.3 mM of oxyglutathione.

Row | Structure (SMILES) | effect of keeping the change in the corneal thickness small (corneas of Dutch rabbits; bicarbonate ions added to the irrigating solution (FIG. 5)) | effect of keeping the change in the corneal thickness small (corneas of Dutch rabbits; bicarbonate ions not added to the irrigating solution (FIG. 6)) | cell-activating effect (absorbance at 450 nm) [1] | cell-activating effect (absorbance at 450 nm) ([1]; listed as D-form) | optimum concentration for cell-activating effect ([1]; tested at 5 and 20 mM, 48 hrs) [mM] | recovery of the barrier function ([2]; 20 mM in MEM medium after sonication damage) | electrical resistance value of the endothelial layer ([2]; 20 mM in MEM medium, vs MEM with 0.3 mM oxyglutathione and MEM alone)
1 | C[C@@H](O)CC(=O)[O-].[Na+] [Solution D-3-HBA, sodium D-3-hydroxy butyrate] | significant | not significant | the most active at any concentrations | activity is obtained | 20 | quick recovery effect | closer to the value before the irradiation of ultrasound at any observation time
2 | C[C@H](O)CC(=O)O [L-form, reference compound] | – | – | hardly obtained; also recorded: did not show a significant difference in activity at any concentrations | – | – | – | –
3 | CC(O)CC(=O)O (racemic) [D,L-form, reference compound] | – | – | did not show a significant difference | – | – | – | –
